The NIST ThermoML archive (doi:10.1016/j.fluid.2017.07.020)
Several values for one entry are separate records, joined by “and”; a condition that tells them apart may be missing. Equal entries are not always repeated.

How the values were obtained:
[1] = Molar enthalpy of transition or fusion; details: DSC
[2] = solid-solid phase transition pressure; details: Crystal 2, DTA

BrC12CC3CC(CC(C3)C1)C2 [1-bromotricyclo[3.3.1.1(3,7)]decane]
Details | Molar enthalpy of transition or fusion [kJ/mol] | phase transition pressure
286.4 K, Crystal 3, DTA | – | 36100 kPa
292.5 K, Crystal 3, DTA | – | 71200 kPa
299.2 K, Crystal 3, DTA | – | 93300 kPa
310.5 K, Crystal 3, DTA | – | 122500 kPa
310.7 K, Crystal 2, DTA | – | 31100 kPa
311.5 K, Crystal 3, DTA | – | 117100 kPa
316.4 K, Crystal 3, DTA | – | 151900 kPa
316.8 K, Crystal 3, DTA | – | 133700 kPa
317.9 K, Crystal 2, DTA | – | 48600 kPa
318.5 K, Crystal 2, DTA | – | 49700 kPa
321.1 K, Crystal 2, DTA | – | 48800 kPa
322.6 K, Crystal 2, DTA | – | 50400 kPa
323 K, Crystal 2, DTA | – | 40400 kPa
323.1 K, Crystal 2, DTA | – | 50000 kPa
323.9 K, Crystal 2, DTA | – | 49000 kPa
324.1 K, Crystal 2, DTA | – | 51800 kPa
324.7 K, Crystal 2, DTA | – | 45700 kPa
325.2 K, Crystal 2, DTA | – | 50900 kPa
325.4 K, Crystal 3, DTA | – | 151800 kPa
327.5 K, Crystal 3, DTA | – | 184900 kPa
329.6 K, Crystal 2, DTA | – | 72800 kPa
329.9 K, Crystal 2, DTA | – | 72400 kPa
330.6 K, Crystal 3, DTA | – | 175700 kPa
332 K, Crystal 2, DTA | – | 74500 kPa
333.7 K, Crystal 3, DTA | – | 227100 kPa
335.1 K, Crystal 2, DTA | – | 73100 kPa
337 K, Crystal 3, DTA | – | 199700 kPa
337.3 K, Crystal 2, DTA | – | 100700 kPa
337.4 K, Crystal 2, DTA | – | 95400 kPa
337.8 K, Crystal 2, DTA | – | 101000 kPa
342.8 K, Crystal 3, DTA | – | 256100 kPa
343.5 K, Crystal 2, DTA | – | 118200 kPa
347.6 K, Crystal 2, DTA | – | 128300 kPa
348.3 K, Crystal 2, DTA | – | 126000 kPa
351.4 K, Crystal 2, DTA | – | 126900 kPa
355.9 K, Crystal 2, DTA | – | 138100 kPa
358.3 K, Crystal 2, DTA | – | 153800 kPa
359 K, Crystal 2, DTA | – | 154300 kPa
362.3 K, Crystal 2, DTA | – | 155500 kPa
363.9 K, Crystal 2, DTA | – | 177800 kPa
369 K, Crystal 2, DTA | – | 182300 kPa
369.7 K, Crystal 2, DTA | – | 189300 kPa
372.5 K, Crystal 2, DTA | – | 178800 kPa
374.4 K, Crystal 2, DTA | – | 205600 kPa
377.4 K, Crystal 2, DTA | – | 205400 kPa
381.6 K, Crystal 2, DTA | – | 204700 kPa and 234100 kPa
382.7 K, Crystal 2, DTA | – | 224800 kPa
383.4 K, Crystal 2, DTA | – | 232100 kPa
389.6 K, Crystal 2, DTA | – | 255000 kPa
390.9 K, Crystal 2, DTA | – | 255000 kPa
392.5 K, Crystal 2, DTA | – | 261500 kPa
404.9 K, Crystal 1, DTA | – | 25800 kPa
406 K, Crystal 1, DTA | – | 32500 kPa
411.8 K, Crystal 1, DTA | – | 61300 kPa
414.6 K, Crystal 1, DTA | – | 56200 kPa
415.8 K, Crystal 1, DTA | – | 78400 kPa
436.7 K, Crystal 1, DTA | – | 160000 kPa
[1], Crystal 1 | 3.25 | –
[1], Crystal 2 | 6.69 | –
[1], Crystal 3 | 1.26 | –

Details | Triple point temperature [K]
Crystal 1, DTA | 392
Crystal 2, DTA | 310.8
Crystal 3, DTA | 282.6

ClC12CC3CC(CC(C3)C1)C2 [1-chlorotricyclo[3.3.1.1(3,7)]decane]
Details | Molar enthalpy of transition or fusion [kJ/mol] | solid-solid phase transition pressure [kPa]
[1], Crystal 1 | 4.22 | –
[1], Crystal 2 | 5.96 | –
[2], 250.4 K | – | 400
[2], 254.3 K | – | 15100
[2], 260.5 K | – | 47600
[2], 265 K | – | 52500
[2], 270.3 K | – | 73100
[2], 274.4 K | – | 98800
[2], 278.5 K | – | 104200
[2], 284.7 K | – | 123100
[2], 292.2 K | – | 153000
[2], 292.3 K | – | 150200
[2], 298.4 K | – | 173600
[2], 300.5 K | – | 199600
[2], 306.2 K | – | 204000
[2], 307 K | – | 216500
[2], 311.5 K | – | 221600
[2], 313.1 K | – | 237900
[2], 313.7 K | – | 242200
[2], 315.2 K | – | 237700
[2], 317.3 K | – | 241000
[2], 319.5 K | – | 261500
[2], 320.7 K | – | 266800

Details | Triple point temperature [K]
Crystal 1, DSC | 438.6
Crystal 2, DTA | 249.5
